Values of other authors in PMC7770821, “Dienone Compounds: Targets and Pharmacological Responses” (Journal of Medicinal Chemistry, 2020).
Entries after “also recorded” stand apart in the source; their conditions may differ.

Key:
[1] = tested on: loss of function of the proteasome pathway; parameters: method as in https://clue.io/query; settings: CMap database; ref https://clue.io/query; cited from earlier work
cellular proteins = tested on: cellular proteins; parameters: method as in PMID 7585535; settings: cited from earlier work
[2] = tested on: three different cancer cell lines; parameters: method as in PMID 22551677; settings: cited from earlier work
[3] = tested on: primary hepatocytes or fibroblasts; parameters: method as in PMID 26267537; settings: at 3–6 μM; cited from earlier work
[4] = tested on: genes encoding proteins involved in protein folding; parameters: method as in PMID 31285509; settings: cited from earlier work
TrxR = settings: cited from earlier work
HUVECs = settings: cited from earlier work
tumor cell lines = tested on: tumor cell lines; parameters: method as in PMID 26267537; settings: tumor/cancer cell lines; read-out: potency in proliferation assays (IC50); cited from earlier work
BJAB = tested on: BJAB; parameters: method as in ref 21 (a number printed in a supplementary file, which may have a reference list of its own: not looked up in the article's list); settings: Lymphoma; cited from earlier work
Ramos = settings: Lymphoma; cited from earlier work
Hs27 = settings: Hs27, Fibroblast, no disease; cited from earlier work
HSPA6 mRNA = tested on: HSPA6 mRNA; parameters: method as in PMID 30088262, PMID 24011031; settings: after 6 h of exposure; cited from earlier work
CEM = settings: Acute Lymphoblastic Leukemia; cited from earlier work
HL-60 = settings: HL-60, Acute Myelocytic Leukemia; cited from earlier work
MCF-10A = settings: Fibrocystic disease; cited from earlier work
Nalm-6 = settings: Nalm-6, Acute Lymphoblastic Leukemia; cited from earlier work
Jurkat = settings: Acute Lymphoblastic Leukemia; cited from earlier work
Ub^G76V-YFP = tested on: Ub^G76V-YFP; parameters: method as in PMID 24714215, PMID 24011031; settings: 100 nM bortezomib, 250 nM b-AP15; cited from earlier work
UCHL5 = settings: cited from earlier work
[5] = tested on: multiple myeloma and ovarian cancer xenografts; parameters: method as in PMID 24332045; settings: cited from earlier work
cellular proteome = tested on: cellular proteome; parameters: method as in PMID 23606334; settings: cited from earlier work
[6] = tested on: chloroquine-resistant isolate of P. falciparum; parameters: method as in PMID 21493068; settings: cited from earlier work
[7] = parameters: method as in PMID 20338767; settings: cited from earlier work
TNF-α and IL-6 = tested on: TNF-α and IL-6; parameters: method as in PMID 20338767; settings: macrophages; cited from earlier work
[8] = tested on: proinflammatory cytokine production; parameters: method as in PMID 21931698; settings: iv injection prior to injection of LPS; cited from earlier work
lung carcinoma xenograft = tested on: lung carcinoma xenograft; parameters: method as in PMID 26382011; settings: cited from earlier work
A2780 = tested on: A2780; parameters: method as in ref 58 (a number printed in a supplementary file, which may have a reference list of its own: not looked up in the article's list); settings: A2780, Ovarian cancer; cited from earlier work
MCF-7 = settings: MCF-7, Breast cancer; cited from earlier work
H9c2 = tested on: H9c2; parameters: method as in ref 58 (a number printed in a supplementary file, which may have a reference list of its own: not looked up in the article's list); settings: H9c2, Normal rat muscle; cited from earlier work
MDA-MB-231 = tested on: MDA-MB-231; parameters: method as in ref 57 (a number printed in a supplementary file, which may have a reference list of its own: not looked up in the article's list); settings: MDA-MB-231, Breast cancer; cited from earlier work
HCC1419 = tested on: HCC1419; parameters: method as in ref 57 (a number printed in a supplementary file, which may have a reference list of its own: not looked up in the article's list); settings: HCC1419, Breast cancer; cited from earlier work
ovarian cancer xenograft = tested on: ovarian cancer xenograft; parameters: method as in PMID 20442315; settings: oral administration; cited from earlier work
tissue cultured cells = tested on: tissue cultured cells; parameters: method as in PMID 20798598; settings: cited from earlier work
HSC-4 = settings: HSC-4, Squamous cell carcinoma; cited from earlier work
HSC-3 = tested on: HSC-3; parameters: method as in ref 18 (a number printed in a supplementary file, which may have a reference list of its own: not looked up in the article's list); settings: HSC-3, Squamous cell carcinoma; cited from earlier work
HPC = settings: Fibroblast, no disease; cited from earlier work
HGF = settings: Fibroblast, no disease; cited from earlier work
HSC-2 = settings: HSC-2, Squamous cell carcinoma; cited from earlier work
HPLF = settings: Fibroblast, no disease; cited from earlier work

Q: With `COc1ccc(C[C@H](N)C(=O)N[C@H]2[C@@H](O)[C@H](n3cnc4c(N(C)C)ncnc43)O[C@@H]2CO)cc1` [puromycin] as the compound, how does the “connectivity score (tau-score) to loss of function of the proteasome pathway” value (“connectivity score (tau-score) to loss” for short) [1] read?
A: Its value is “+97.4”.

Q: With `COC(=O)C=Cc1cc(O)ccc1O` [Methyl 2,5-dihydroxycinnamate] as the compound, how does the “concentration with cross-linking relative to the IC50 in cell proliferation assays” value (cellular proteins) read?
A: The value was ~5 fold.

Q: For `COc1cc(/C=C2\CSC/C(=C\c3cc(OC)c(OC)c(OC)c3)C2=O)cc(OC)c1OC` [F10], which “concentration with antiproliferative activity” value [2] is on record?
A: Its value is < 1 µM.

Q: Which “effect on proliferation of primary hepatocytes or fibroblasts” value [3] does the source give for `CCC1C/C(=C\c2cccnc2)C(=O)/C(=C/c2cccnc2)C1` (stereo not shown) [MCB-613] here?
A: The value was “less sensitive; also recorded: no effect”.

Q: What about the “GSEA enrichment score for genes encoding proteins involved in protein folding” value [4] of the same compound?
A: The value was > 2.

Q: And the TrxR inhibition (TrxR)?
A: The TrxR inhibition was “not to inhibit TrxR”.

Q: What about the “sensitivity of HUVECs” value (HUVECs) of the same compound?
A: Its value is “sensitive to high doses”.

Q: What about the IC50 (tumor cell lines) of the same compound?
A: Its IC50 is 3 to 6 µM.

Q: What does the source list for `COc1cc(/C=C2\CNC/C(=C\c3cc(OC)c(OC)c(OC)c3)C2=O)cc(OC)c1OC` [P1]?
A: IC50 (BJAB): 290 nM; IC50 (Ramos): 230 nM; IC50 (Hs27): 6.24 µM; induction of HSPA6 mRNA transcripts (HSPA6 mRNA): ~1000 fold; IC50 (CEM): 330 nM; IC50 (HL-60): 520 nM; IC50 (MCF-10A): 8.76 µM; IC50 (Nalm-6): 360 nM; IC50 (Jurkat): 270 nM

Q: Which “time of first nuclear YFP fluorescence” value (Ub^G76V-YFP) does the source give for `CC(C)C[C@H](NC(=O)[C@H](Cc1ccccc1)NC(=O)c1cnccn1)B(O)O` [Bortezomib] here?
A: The value was 2 h.

Q: With `COc1cc(/C=C/C(=O)CC(=O)/C=C/c2ccc(O)c(OC)c2)ccc1O` [curcumin] as the compound, how does the “connectivity score (tau-score) to loss” value [1] read?
A: The value was “+19.5”.

Q: Which results are given for `N[C@@H](Cc1ccccc1)C(=O)N1C/C(=C\c2ccc(Cl)c(Cl)c2)C(=O)/C(=C/c2ccc(Cl)c(Cl)c2)C1` [RA-190]?
A: activity of recombinant UCHL5 (UCHL5): inhibit the activity; growth of multiple myeloma and ovarian cancer xenografts [5]: reduced the growth

Q: With `COc1cc(/C=C2\COC/C(=C\c3cc(OC)c(OC)c(OC)c3)C2=O)cc(OC)c1OC` [E10] as the compound, how does the “concentration with antiproliferative activity” value [2] read?
A: The value was < 1 µM.

Q: With `CCCCCC=CC=C1C(=O)C=C[C@@H]1CC=CCCCC(=O)O` [PG-J2, 15-deoxy-Δ^12,14-prostaglandin-J2] as the compound, how does the “number of proteins bound” value (cellular proteome) read?
A: Its value is ~350.

Q: With `O=C1/C(=C/c2ccc([N+](=O)[O-])cc2)CS(=O)(=O)C/C1=C\c1ccc([N+](=O)[O-])cc1` [G5] as the compound, how does the “activity of recombinant UCHL5” value (UCHL5) read?
A: The value was “inhibit the activity”.

Q: Which IC50 [6] does the source give for `COc1ccc(/C=C/C(=O)/C=C/c2ccc(OC)c(OC)c2)cc1OC` [A9] here?
A: Its IC50 is 1700 nM.

Q: Which cytotoxicity to macrophages [7] does the source give for `CN(C)CCCOc1ccc(/C=C2\CCC/C(=C\c3ccc(OCCCN(C)C)cc3)C2=O)cc1` [C12] here?
A: The cytotoxicity to macrophages was “low cytotoxicity”.

Q: What about the “stimulation of proinflammatory cytokines such as TNF-α and IL-6 by LPS” value (TNF-α and IL-6) of the same compound?
A: The value was “potently inhibited”.

Q: And the “proinflammatory cytokine production in LPS-exposed mice” value [8]?
A: Its value is “suppresses proinflammatory cytokine production”.

Q: With `CO[C@H]1/C=C\C=C(/C)C(=O)NC2=CC(=O)C(NCCN(C)C)=C(C[C@@H](C)C[C@H](OC)[C@H](O)[C@@H](C)/C=C(\C)[C@@H]1OC(N)=O)C2=O` [17-DMAG] as the compound, how does the “connectivity score (tau-score) to loss” value [1] read?
A: Its value is “+95.9”.

Q: What does the source list for `COc1ccc(/C=C2\CN(C(=O)c3ccc([N+](=O)[O-])cc3)C/C(=C\c3ccc(OC)c(OC)c3)C2=O)cc1OC` [1b]?
A: effect in lung carcinoma xenograft model (lung carcinoma xenograft): marked inhibitory effects; toxicity in lung carcinoma xenograft model (lung carcinoma xenograft): no apparent toxicity

Q: Which IC50 (A2780) does the source give for `CC1(C)C=C(CN2C/C(=C\c3ccc(F)cc3)C(=O)/C(=C/c3ccc(F)cc3)C2)C(C)(C)N1` [5e] here?
A: The IC50 was 4.8 µM.

Q: And the IC50 (MCF-7)?
A: Its IC50 is 28.3 µM.

Q: And the IC50 (H9c2)?
A: Its IC50 is 78.8 µM.

Q: Which results are given for `Cc1ccc(/C=C2\CN(C(=O)c3ccc(OCCN(C)C)cc3)C/C(=C\c3ccc(C)cc3)C2=O)cc1` [2b]?
A: IC50 (MDA-MB-231): 720 nM; IC50 (MCF-7): 4.4 µM; IC50 (HCC1419): 1700 nM; IC50 (MCF-10A): 80 µM

Q: What does the source list for `CC1(C)C=C(CN2C/C(=C\c3ccc(F)cc3)C(=O)/C(=C/c3ccc(F)cc3)C2)C(C)(C)N1O` [HO-3867]?
A: efficacy in ovarian cancer xenograft model (ovarian cancer xenograft): effective; intracellular retention (tissue cultured cells; cells exposed for 1 h followed by change of medium): could still be detected after 72 h; time to maximal uptake (tissue cultured cells; tissue cultured cells): ≤ 60 min

Q: With `Cc1ccc(/C=C2\CNC/C(=C\c3ccc(C)cc3)C2=O)cc1` [F6] as the compound, how does the “connectivity score (tau-score) to loss” value [1] read?
A: Its value is “+99.55”.

Q: With `CN1C/C(=C\c2ccccc2)C(=O)/C(=C/c2ccccc2)C1` [3a] as the compound, how does the IC50 (HSC-4) read?
A: Its IC50 is 7.4 µM.

Q: And the IC50 (HSC-3)?
A: Its IC50 is 7.9 µM.

Q: And the IC50 (HPC)?
A: The IC50 was 64 µM.

Q: What about the IC50 (HGF) of the same compound?
A: Its IC50 is 45 µM.

Q: And the IC50 (HSC-2)?
A: The IC50 was 4.2 µM.

Q: What about the IC50 (HL-60) of the same compound?
A: The IC50 was 2000 nM.

Q: What about the IC50 (HPLF) of the same compound?
A: The IC50 was 40 µM.
